Source: ChEMBL document CHEMBL3885861, “Open TG-GATES”

Species on record: Rattus norvegicus
Test: Open TG-GATES - Regimen: Daily Repeat
Format: toxicity, organism-based, Sprague-Dawley
Design: regimen Daily Repeat, gender Male, age 6 weeks
Details: in vivo, po, 30 mg/kg, […], route gavage, dose level Middle; for KIDNEY_L / KIDNEY_R / KIDNEY_TOTAL: tissue Kidney; for LIVER: tissue Liver; for A/G / ALP / ALT / AST / BUN / CRE / Ca / Cl / DBIL / GLC / IP / K / LDH / Na / PL / RALB / TBIL / TC / TG / TP / gamma-GTP: tissue Plasma

**Q.** `NC(=O)N/N=C/c1ccc([N+](=O)[O-])o1` [NITROFURAZONE] was tested. Which Lym (tissue Blood, time 28 day) did it give?
**A.** 82.8%

**Q.** What about the MCH (tissue Blood, time 28 day) of the same compound?
**A.** 19.7 pg

**Q.** And the MCHC (tissue Blood, time 28 day)?
**A.** 33.8%

**Q.** What about the MCV (tissue Blood, time 28 day) of the same compound?
**A.** 58.2 fL

**Q.** What about the Mono (tissue Blood, time 28 day) of the same compound?
**A.** 2%

**Q.** And the Neu (tissue Blood, time 28 day)?
**A.** 13.6%

**Q.** And the PT (tissue Blood, time 28 day)?
**A.** 14.3 s

**Q.** And the Plat (tissue Blood, time 28 day)?
**A.** 99 x10_4/uL

**Q.** What about the RBC (tissue Blood, time 28 day) of the same compound?
**A.** 727.8 x10_4/ul

**Q.** What about the Ret (tissue Blood, time 28 day) of the same compound?
**A.** 4.2%

**Q.** And the WBC (tissue Blood, time 28 day)?
**A.** 114.5 x10_2/uL

**Q.** What about the KIDNEY_L (time 7 day) of the same compound?
**A.** 1.1 g

**Q.** What about the KIDNEY_R (time 7 day) of the same compound?
**A.** 1.2 g

**Q.** And the KIDNEY_TOTAL (time 7 day)?
**A.** 2.3 g

**Q.** What about the KIDNEY_L (time 14 day) of the same compound?
**A.** 1.3 g

**Q.** What about the KIDNEY_R (time 14 day) of the same compound?
**A.** 1.3 g

**Q.** What about the KIDNEY_TOTAL (time 14 day) of the same compound?
**A.** 2.6 g

**Q.** What about the KIDNEY_L (time 28 day) of the same compound?
**A.** 1.6 g

**Q.** What about the KIDNEY_R (time 28 day) of the same compound?
**A.** 1.6 g

**Q.** And the KIDNEY_TOTAL (time 28 day)?
**A.** 3.3 g

**Q.** And the LIVER (time 7 day)?
**A.** 13.3 g

**Q.** And the LIVER (time 14 day)?
**A.** 17 g

**Q.** And the LIVER (time 28 day)?
**A.** 19 g

**Q.** And the A/G (time 7 day)?
**A.** 0.8

**Q.** What about the ALP (time 7 day) of the same compound?
**A.** 1619 IU/L

**Q.** What about the ALT (time 7 day) of the same compound?
**A.** 41 IU/L

**Q.** And the AST (time 7 day)?
**A.** 62.6 IU/L

**Q.** What about the BUN (time 7 day) of the same compound?
**A.** 13.8 mg/dL

**Q.** And the CRE (time 7 day)?
**A.** 0.2 mg/dL

**Q.** What about the Ca (time 7 day) of the same compound?
**A.** 11.2 mg/dL

**Q.** And the Cl (time 7 day)?
**A.** 103.6 meq/L

**Q.** And the DBIL (time 7 day)?
**A.** 0.016 mg/dL

**Q.** What about the GLC (time 7 day) of the same compound?
**A.** 181.8 mg/dL

**Q.** And the IP (time 7 day)?
**A.** 7.7 mg/dL

**Q.** What about the K (time 7 day) of the same compound?
**A.** 3.8 meq/L

**Q.** What about the LDH (time 7 day) of the same compound?
**A.** 90.2 IU/L

**Q.** And the Na (time 7 day)?
**A.** 141.8 meq/L

**Q.** And the PL (time 7 day)?
**A.** 155.8 mg/dL

**Q.** And the RALB (time 7 day)?
**A.** 2.6 g/dL

**Q.** What about the TBIL (time 7 day) of the same compound?
**A.** 0.048 mg/dL

**Q.** What about the TC (time 7 day) of the same compound?
**A.** 77.6 mg/dL

**Q.** And the TG (time 7 day)?
**A.** 117.4 mg/dL

**Q.** And the TP (time 7 day)?
**A.** 5.8 g/dL

**Q.** What about the gamma-GTP (time 7 day) of the same compound?
**A.** 1 IU/L

**Q.** What about the A/G (time 14 day) of the same compound?
**A.** 0.8

**Q.** What about the ALP (time 14 day) of the same compound?
**A.** 1501.8 IU/L

**Q.** And the ALT (time 14 day)?
**A.** 41.8 IU/L

**Q.** What about the AST (time 14 day) of the same compound?
**A.** 63.6 IU/L

**Q.** What about the BUN (time 14 day) of the same compound?
**A.** 18 mg/dL

**Q.** What about the CRE (time 14 day) of the same compound?
**A.** 0.2 mg/dL

**Q.** What about the Ca (time 14 day) of the same compound?
**A.** 11.1 mg/dL

**Q.** What about the Cl (time 14 day) of the same compound?
**A.** 103.6 meq/L

**Q.** And the DBIL (time 14 day)?
**A.** 0.014 mg/dL

**Q.** What about the GLC (time 14 day) of the same compound?
**A.** 193.4 mg/dL

**Q.** What about the IP (time 14 day) of the same compound?
**A.** 7.7 mg/dL

**Q.** And the K (time 14 day)?
**A.** 4.1 meq/L

**Q.** And the LDH (time 14 day)?
**A.** 89.8 IU/L

**Q.** And the Na (time 14 day)?
**A.** 142.2 meq/L

**Q.** What about the PL (time 14 day) of the same compound?
**A.** 169.2 mg/dL

**Q.** What about the RALB (time 14 day) of the same compound?
**A.** 2.8 g/dL

**Q.** And the TBIL (time 14 day)?
**A.** 0.05 mg/dL

**Q.** What about the TC (time 14 day) of the same compound?
**A.** 87.2 mg/dL

**Q.** What about the TG (time 14 day) of the same compound?
**A.** 107.6 mg/dL

**Q.** And the TP (time 14 day)?
**A.** 6.1 g/dL

**Q.** And the gamma-GTP (time 14 day)?
**A.** 1 IU/L

**Q.** And the A/G (time 28 day)?
**A.** 0.8

**Q.** And the ALP (time 28 day)?
**A.** 1102.6 IU/L

**Q.** And the ALT (time 28 day)?
**A.** 38 IU/L

**Q.** What about the AST (time 28 day) of the same compound?
**A.** 56.4 IU/L

**Q.** What about the BUN (time 28 day) of the same compound?
**A.** 16.4 mg/dL

**Q.** And the CRE (time 28 day)?
**A.** 0.2 mg/dL

**Q.** What about the Ca (time 28 day) of the same compound?
**A.** 10.7 mg/dL

**Q.** And the Cl (time 28 day)?
**A.** 103.2 meq/L

**Q.** What about the DBIL (time 28 day) of the same compound?
**A.** 0.012 mg/dL

**Q.** And the GLC (time 28 day)?
**A.** 182.4 mg/dL

**Q.** What about the IP (time 28 day) of the same compound?
**A.** 7.1 mg/dL

**Q.** And the K (time 28 day)?
**A.** 3.8 meq/L

**Q.** And the LDH (time 28 day)?
**A.** 43.2 IU/L

**Q.** What about the Na (time 28 day) of the same compound?
**A.** 142.8 meq/L

**Q.** What about the PL (time 28 day) of the same compound?
**A.** 163.8 mg/dL

**Q.** What about the RALB (time 28 day) of the same compound?
**A.** 2.8 g/dL

**Q.** And the TBIL (time 28 day)?
**A.** 0.076 mg/dL

**Q.** What about the TC (time 28 day) of the same compound?
**A.** 80.2 mg/dL

**Q.** What about the TG (time 28 day) of the same compound?
**A.** 104.4 mg/dL

**Q.** And the TP (time 28 day)?
**A.** 6.1 g/dL

**Q.** What about the gamma-GTP (time 28 day) of the same compound?
**A.** 1 IU/L
